Like-named read-outs stand apart in the source and are kept apart here.
How the values were obtained:
JAK1 = target: T1, JAK1 (Homo sapiens, UniProt P23458); experiment: Biochemical JAK1 kinase assay (LanthaScreen); conditions: for Ki: read-out: JAK 1 (pKi) (converted)
T1 construct: GST; purchased Life Technologies
In short: (§1)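 Values are pKi, calculated by Cheng-Prusoff from IC50 obtained by robust 4-parameter fitting of percent inhibition. The kinase reaction used GFP-STAT1 peptide in HEPES pH 7.5 buffer with MgCl2, EGTA and Brij-35, ATP-initiated after compound pre-incubation, 1 h at ambient temperature.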

JAK2 = target: T2, JAK2 (Homo sapiens, UniProt O60674); experiment: Biochemical JAK2 kinase assay (LanthaScreen); conditions: for Ki: read-out: JAK 2 (pKi) (converted)
T2 construct: GST; purchased Life Technologies
T2 sequence (O60674 whole entry): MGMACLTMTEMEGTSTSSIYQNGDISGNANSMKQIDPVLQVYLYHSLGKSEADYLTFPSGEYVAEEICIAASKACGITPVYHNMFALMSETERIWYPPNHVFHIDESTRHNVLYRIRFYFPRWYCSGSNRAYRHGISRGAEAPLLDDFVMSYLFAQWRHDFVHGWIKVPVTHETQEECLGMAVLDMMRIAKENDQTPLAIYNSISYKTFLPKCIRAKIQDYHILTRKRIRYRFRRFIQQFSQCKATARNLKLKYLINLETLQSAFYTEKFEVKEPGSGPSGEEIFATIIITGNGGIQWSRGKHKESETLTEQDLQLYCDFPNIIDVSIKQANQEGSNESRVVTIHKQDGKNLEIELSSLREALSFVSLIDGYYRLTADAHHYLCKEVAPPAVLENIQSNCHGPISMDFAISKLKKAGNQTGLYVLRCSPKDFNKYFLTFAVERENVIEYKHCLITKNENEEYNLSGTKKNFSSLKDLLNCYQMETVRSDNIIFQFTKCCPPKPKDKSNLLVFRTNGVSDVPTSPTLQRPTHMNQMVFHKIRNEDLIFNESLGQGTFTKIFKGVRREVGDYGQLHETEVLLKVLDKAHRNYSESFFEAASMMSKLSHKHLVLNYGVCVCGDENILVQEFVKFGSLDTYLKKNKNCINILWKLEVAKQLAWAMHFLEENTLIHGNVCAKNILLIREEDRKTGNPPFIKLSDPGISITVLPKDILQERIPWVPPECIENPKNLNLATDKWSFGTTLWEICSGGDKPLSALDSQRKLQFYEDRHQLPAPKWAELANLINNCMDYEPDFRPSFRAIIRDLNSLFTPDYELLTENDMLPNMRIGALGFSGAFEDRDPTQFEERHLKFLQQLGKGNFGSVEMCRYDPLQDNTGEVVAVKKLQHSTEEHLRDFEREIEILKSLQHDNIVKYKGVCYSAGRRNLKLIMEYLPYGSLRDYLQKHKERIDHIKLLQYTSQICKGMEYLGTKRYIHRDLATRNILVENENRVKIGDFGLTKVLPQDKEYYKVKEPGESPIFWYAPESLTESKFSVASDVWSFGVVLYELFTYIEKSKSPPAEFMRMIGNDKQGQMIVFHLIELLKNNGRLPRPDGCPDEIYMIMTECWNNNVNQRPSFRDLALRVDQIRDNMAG
In short: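 GST-tagged recombinant JAK2 pre-incubated 1 h at ambient temperature with compound and GFP-STAT1 peptide in HEPES pH 7.5/MgCl2 buffer, then ATP added for a 1 h reaction with 1% DMSO. TR-FRET read after EDTA and Tb-anti-pSTAT1 (pTyr701) addition; IC50 from 4-parameter fit, converted to pKi by Cheng-Prusoff.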

Tyk2 = target: T3, Tyk2 (Homo sapiens, UniProt P29597); experiment: Biochemical Tyk2 kinase assay (LanthaScreen); conditions: for Ki: read-out: Tyk 2 (pKi) (converted)
T3 construct: GST; purchased Life Technologies
T3 sequence (P29597 whole entry): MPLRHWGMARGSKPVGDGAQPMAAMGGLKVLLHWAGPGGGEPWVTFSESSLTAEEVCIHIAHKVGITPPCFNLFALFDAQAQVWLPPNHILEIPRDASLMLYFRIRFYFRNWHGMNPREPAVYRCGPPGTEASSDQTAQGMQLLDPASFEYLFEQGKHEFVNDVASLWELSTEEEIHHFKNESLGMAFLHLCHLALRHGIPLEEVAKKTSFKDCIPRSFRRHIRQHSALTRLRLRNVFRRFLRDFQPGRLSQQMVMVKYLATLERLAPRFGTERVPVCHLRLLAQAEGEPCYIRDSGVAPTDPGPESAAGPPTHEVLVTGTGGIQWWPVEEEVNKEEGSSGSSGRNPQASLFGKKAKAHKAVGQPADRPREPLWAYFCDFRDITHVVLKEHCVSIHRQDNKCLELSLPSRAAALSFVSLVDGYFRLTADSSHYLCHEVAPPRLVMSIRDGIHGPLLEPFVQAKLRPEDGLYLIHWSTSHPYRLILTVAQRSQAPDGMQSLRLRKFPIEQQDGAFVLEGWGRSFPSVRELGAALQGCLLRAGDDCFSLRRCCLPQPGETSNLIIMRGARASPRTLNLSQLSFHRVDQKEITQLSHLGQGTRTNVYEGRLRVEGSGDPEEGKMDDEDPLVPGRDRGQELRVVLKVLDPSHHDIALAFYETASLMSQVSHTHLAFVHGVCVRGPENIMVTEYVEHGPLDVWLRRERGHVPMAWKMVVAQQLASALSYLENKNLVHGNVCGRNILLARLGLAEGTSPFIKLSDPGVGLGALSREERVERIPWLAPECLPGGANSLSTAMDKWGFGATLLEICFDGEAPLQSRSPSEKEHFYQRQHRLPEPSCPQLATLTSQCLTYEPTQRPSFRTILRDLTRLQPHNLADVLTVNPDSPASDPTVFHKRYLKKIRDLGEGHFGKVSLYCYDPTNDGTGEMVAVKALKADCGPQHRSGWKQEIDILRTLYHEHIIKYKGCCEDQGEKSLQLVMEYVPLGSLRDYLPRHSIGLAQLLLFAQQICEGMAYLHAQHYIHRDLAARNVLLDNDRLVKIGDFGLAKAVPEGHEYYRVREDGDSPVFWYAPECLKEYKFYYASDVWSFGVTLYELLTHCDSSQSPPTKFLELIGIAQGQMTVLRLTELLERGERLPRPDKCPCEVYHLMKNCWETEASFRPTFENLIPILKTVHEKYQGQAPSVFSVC
In short: as §1

[1] = test system: IL-2 stimulated pSTAT5 in Tall-1 T cells; experiment: Cellular JAK3 potency assay: inhibition of IL-2 stimulated pSTAT5 in Tall-1 T cells; type: cell-based, human; conditions: for IC50: Homo sapiens, read-out: Tall-1 (pIC50) (converted)
In short: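 Tall-1 human T cells (45,000/well) in phenol red-free DMEM with 10% FBS were preincubated with compound 1 h at 37 °C, then stimulated with IL-2 (final 300 ng/ml) for 30 min. Lysate pSTAT5 read by AlphaLisa; IC50 from inhibition curves, reported as pIC50 (mean±SD).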

JAK3 = target: T4, JAK3 (Homo sapiens, UniProt P52333); experiment: Biochemical JAK3 kinase assay (LanthaScreen); parameters: GST; purchased Life Technologies; conditions: for Ki: read-out: JAK 3 (pKi) (converted)
T4 sequence (P52333 1-1124): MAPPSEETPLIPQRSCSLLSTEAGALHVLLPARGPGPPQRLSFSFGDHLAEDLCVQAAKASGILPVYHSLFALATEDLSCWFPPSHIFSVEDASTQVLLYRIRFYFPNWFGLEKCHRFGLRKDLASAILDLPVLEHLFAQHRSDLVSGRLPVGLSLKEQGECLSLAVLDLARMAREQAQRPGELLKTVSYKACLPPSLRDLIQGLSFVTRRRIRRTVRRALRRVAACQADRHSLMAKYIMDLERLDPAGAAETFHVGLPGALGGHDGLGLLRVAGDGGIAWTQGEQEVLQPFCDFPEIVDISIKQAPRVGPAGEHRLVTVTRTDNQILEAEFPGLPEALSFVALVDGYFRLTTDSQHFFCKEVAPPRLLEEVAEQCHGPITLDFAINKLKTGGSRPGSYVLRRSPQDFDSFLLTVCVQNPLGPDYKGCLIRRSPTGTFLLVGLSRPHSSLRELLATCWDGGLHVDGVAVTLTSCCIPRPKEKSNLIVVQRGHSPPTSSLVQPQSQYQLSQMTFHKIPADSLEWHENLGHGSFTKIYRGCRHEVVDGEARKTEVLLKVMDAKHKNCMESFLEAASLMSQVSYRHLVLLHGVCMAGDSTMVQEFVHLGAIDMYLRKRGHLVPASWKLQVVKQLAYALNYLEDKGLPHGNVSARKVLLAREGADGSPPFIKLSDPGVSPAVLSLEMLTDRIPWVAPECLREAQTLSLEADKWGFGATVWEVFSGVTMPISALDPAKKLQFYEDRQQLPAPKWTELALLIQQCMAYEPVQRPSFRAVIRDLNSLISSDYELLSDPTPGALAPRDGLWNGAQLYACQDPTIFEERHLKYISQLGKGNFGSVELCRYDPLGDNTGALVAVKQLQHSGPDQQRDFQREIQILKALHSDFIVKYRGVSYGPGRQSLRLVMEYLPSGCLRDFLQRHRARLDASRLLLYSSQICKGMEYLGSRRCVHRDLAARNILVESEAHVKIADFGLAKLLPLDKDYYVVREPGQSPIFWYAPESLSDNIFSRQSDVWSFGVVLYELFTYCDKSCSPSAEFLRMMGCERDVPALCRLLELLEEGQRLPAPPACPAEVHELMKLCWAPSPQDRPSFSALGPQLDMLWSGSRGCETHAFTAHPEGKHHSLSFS
In short: as §1

[2] = selectivity JAK3 over JAK1, difference of pKi
[3] = TALL-1, IL-2 stimulated pSTAT5 in Tall-1 T cells
[4] = selectivity: difference of pKi JAK3 and pKi JAK1
[5] = IL-2 stimulated pSTAT5 in Tall-1 T cells
[6] = IL-2 stimulated pSTAT5, Tall-1 T cells

T1 sequence (P23458 whole entry): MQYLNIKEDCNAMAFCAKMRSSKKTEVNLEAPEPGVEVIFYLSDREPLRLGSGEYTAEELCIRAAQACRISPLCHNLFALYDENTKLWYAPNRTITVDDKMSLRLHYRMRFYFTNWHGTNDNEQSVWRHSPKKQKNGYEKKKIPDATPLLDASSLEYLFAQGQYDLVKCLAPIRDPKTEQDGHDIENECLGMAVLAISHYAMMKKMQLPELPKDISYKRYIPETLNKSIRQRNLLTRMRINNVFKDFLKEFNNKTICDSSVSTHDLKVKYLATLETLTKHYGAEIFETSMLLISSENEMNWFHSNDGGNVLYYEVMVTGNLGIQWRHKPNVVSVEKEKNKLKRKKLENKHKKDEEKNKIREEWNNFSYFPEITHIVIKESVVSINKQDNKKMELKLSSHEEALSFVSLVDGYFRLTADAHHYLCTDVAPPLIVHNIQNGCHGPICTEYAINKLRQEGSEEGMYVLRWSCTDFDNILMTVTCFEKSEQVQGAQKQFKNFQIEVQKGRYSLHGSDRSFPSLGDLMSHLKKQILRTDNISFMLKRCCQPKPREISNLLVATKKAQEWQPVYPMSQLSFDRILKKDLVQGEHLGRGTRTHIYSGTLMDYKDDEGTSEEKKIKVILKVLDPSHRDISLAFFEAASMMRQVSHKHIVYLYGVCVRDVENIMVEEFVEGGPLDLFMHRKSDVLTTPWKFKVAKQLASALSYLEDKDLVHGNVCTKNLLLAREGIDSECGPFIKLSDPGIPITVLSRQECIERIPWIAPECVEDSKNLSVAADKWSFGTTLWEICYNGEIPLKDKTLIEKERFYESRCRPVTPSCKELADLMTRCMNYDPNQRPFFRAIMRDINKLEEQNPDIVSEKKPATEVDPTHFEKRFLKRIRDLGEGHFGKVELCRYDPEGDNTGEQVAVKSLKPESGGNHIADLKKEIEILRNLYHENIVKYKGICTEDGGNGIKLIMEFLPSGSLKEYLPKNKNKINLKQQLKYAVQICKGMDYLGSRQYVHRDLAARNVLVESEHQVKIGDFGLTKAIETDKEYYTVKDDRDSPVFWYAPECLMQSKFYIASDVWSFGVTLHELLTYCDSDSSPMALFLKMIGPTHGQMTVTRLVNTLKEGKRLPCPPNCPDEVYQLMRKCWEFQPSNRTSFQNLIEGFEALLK

SMILES	Ki (JAK1) [nM]	Ki (JAK2) [nM]	Ki (Tyk2) [nM]	IC50 ([1]; TALL-1, IL-2 stimulated pSTAT5, Tall-1 T cells) [nM]	Ki (JAK3) [nM]	JAK3 (pKi)-JAK1 (pKi) (JAK3; [2])	IC50 [1, 3] [nM]	JAK3 (pKi)-JAK1 (pKi) (JAK3; [4])	JAK 1 (pKi) (JAK1)	JAK 2 (pKi) (JAK2)	Tyk 2 (pKi) (Tyk2)	Tall-1 (pIC50) [1, 5]	JAK 3 (pKi) (JAK3)	Tall-1 (pIC50) [1, 6]
C=CC(=O)N1CC[C@H](Oc2cc(-c3ccc(O)cc3)cc3[nH]ncc23)C[C@H]1C [Compound 12-32]	> 100	10 to 100	> 100	< 31.6	< 0.1	A (a value of 3 or above)	–	–	–	–	–	–	–	–
C=CC(=O)N1CC(F)(COc2cc(-c3ccc(O)c(F)c3)cc3[nH]ncc23)C1 [Compound 3-41]	0.1 to 1	1 to 10	> 100	–	0.1 to 1	–	< 31.6	B (a value of 2.3 to 3)	–	–	–	–	–	–
C=CC(=O)N1CC(C)(COc2nc(-c3ccc(O)c(F)c3)cc3[nH]ncc23)C1 [Compound 3-59]	–	–	–	–	–	–	–	B (a value of 2.3 to 3)	E (a pKi value of 7 or below (Ki of 100 nM or above))	D (a pKi value between 7 and 8 (Ki between 100 nM and 10 nM))	E (a pKi value of 7 or below (Ki of 100 nM or above))	A (a pIC50 value≥7.5 (IC50≤32 nM))	B (a pKi value between 9 and 10 (Ki between 1 nM and 0.1 nM))	–
C=CC(=O)N1CC(CSc2cc(-c3ccc(O)c(F)c3)cc3[nH]ncc23)C1 [Compound 13-7]	–	–	–	–	–	A (a value of 3 or above)	–	–	E (a pKi value of 7 or below (Ki of 100 nM or above))	D (a pKi value between 7 and 8 (Ki between 100 nM and 10 nM))	E (a pKi value of 7 or below (Ki of 100 nM or above))	–	A (a pKi value≥10 (Ki≤0.1 nM))	B (a pIC50 value between 6.7 (included) and 7.5 (IC50 between 200 nM and 32 nM))
C=CC(=O)N1CC(C#N)(COc2nc(-c3ccc(O)c(Cl)c3)cc3[nH]ncc23)C1 [Compound 3-107]	–	–	–	–	–	–	–	A (a value of 3 or above)	E (a pKi value of 7 or below (Ki of 100 nM or above))	E (a pKi value of 7 or below (Ki of 100 nM or above))	E (a pKi value of 7 or below (Ki of 100 nM or above))	A (a pIC50 value≥7.5 (IC50≤32 nM))	A (a pKi value≥10 (Ki≤0.1 nM))	–
C=CC(=O)N1CC[C@H](Oc2cc(-c3ccc(O)cc3)cc3[nH]nc(Cl)c23)C1 [Compound 1-47]	–	–	–	–	–	–	–	B (a value of 2.3 to 3)	E (a pKi value of 7 or below (Ki of 100 nM or above))	E (a pKi value of 7 or below (Ki of 100 nM or above))	E (a pKi value of 7 or below (Ki of 100 nM or above))	B (a pIC50 value between 6.7 (included) and 7.5 (IC50 between 200 nM and 32 nM))	B (a pKi value between 9 and 10 (Ki between 1 nM and 0.1 nM))	–
CN(C)C/C=C/C(=O)N1CC(F)(COc2cc(-c3ccc(O)c(Cl)c3)cc3[nH]ncc23)C1 [Compound 3-42]	0.1 to 1	10 to 100	> 100	–	0.1 to 1	–	< 31.6	B (a value of 2.3 to 3)	–	–	–	–	–	–
CCC1(COc2cc(-c3ccc(O)c(Cl)c3)nc3[nH]ncc23)CN(C(=O)/C=C/CN(C)C)C1 [Compound 3-68]	–	–	–	–	–	–	–	B (a value of 2.3 to 3)	D (a pKi value between 7 and 8 (Ki between 100 nM and 10 nM))	E (a pKi value of 7 or below (Ki of 100 nM or above))	E (a pKi value of 7 or below (Ki of 100 nM or above))	C (a pIC50 value between 6 and 6.7 (IC50 between 1 μM and 200 nM))	B (a pKi value between 9 and 10 (Ki between 1 nM and 0.1 nM))	–
COC1(COc2cc(-c3ccc(O)cc3)cc3[nH]ncc23)CN(C(=O)/C=C/CN(C)C)C1 [Compound 3-32]	> 100	> 100	> 100	–	0.1 to 1	–	< 31.6	A (a value of 3 or above)	–	–	–	–	–	–
C=CC(=O)N1CC(F)(COc2nc(-c3ccc(O)c(F)c3)nc3[nH]ncc23)C1 [Compound 3-93]	> 100	> 100	> 100	–	< 0.1	–	< 31.6	A (a value of 3 or above)	–	–	–	–	–	–
C=C(CN(C)C)C(=O)N1CC(COc2nc(-c3ccc(O)cc3)nc3[nH]ncc23)C1 [Compound 3-112]	> 100	> 100	> 100	–	0.1 to 1	–	31.6 to 200	A (a value of 3 or above)	–	–	–	–	–	–
C=CC(=O)N1CC(Oc2cc(-c3ccc(O)cc3)cc3[nH]ncc23)(C(F)F)C1 [Compound 5-14]	–	–	–	–	–	–	–	A (a value of 3 or above)	E (a pKi value of 7 or below (Ki of 100 nM or above))	E (a pKi value of 7 or below (Ki of 100 nM or above))	E (a pKi value of 7 or below (Ki of 100 nM or above))	A (a pIC50 value≥7.5 (IC50≤32 nM))	A (a pKi value≥10 (Ki≤0.1 nM))	–
C=CC(=O)N1CC[C@H](Oc2cc(-c3cc(F)c(O)cc3C)cc3[nH]ncc23)C1 [Compound 1-16]	> 100	10 to 100	> 100	–	0.1 to 1	–	31.6 to 200	B (a value of 2.3 to 3)	–	–	–	–	–	–
Cc1cc(O)c(F)cc1-c1cc(O[C@H]2CCN(C(=O)/C=C/CN(C)C)C2)c2cn[nH]c2c1 [Compound 1-29]	10 to 100	10 to 100	> 100	–	0.1 to 1	–	31.6 to 200	B (a value of 2.3 to 3)	–	–	–	–	–	–
C=CC(=O)N1CCC(COc2cc(-c3ccc(O)c(Cl)c3)cc3[nH]ncc23)CC1 [Compound 14-1]	–	–	–	–	–	A (a value of 3 or above)	–	–	E (a pKi value of 7 or below (Ki of 100 nM or above))	E (a pKi value of 7 or below (Ki of 100 nM or above))	E (a pKi value of 7 or below (Ki of 100 nM or above))	–	B (a pKi value between 9 and 10 (Ki between 1 nM and 0.1 nM))	A (a pIC50 value≥7.5 (IC50≤32 nM))
CN(C)C/C=C/C(=O)N1CC(F)(COc2nc(-c3ccc(O)c(Cl)c3)nc3[nH]ncc23)C1 [Compound 3-50]	> 100	> 100	> 100	–	0.1 to 1	–	31.6 to 200	A (a value of 3 or above)	–	–	–	–	–	–
CN(C)C/C=C/C(=O)N1CC(C#N)(COc2cc(-c3ccc(O)c(Cl)c3)cc3[nH]ncc23)C1 [Compound 3-21]	> 100	> 100	> 100	–	0.1 to 1	–	< 31.6	A (a value of 3 or above)	–	–	–	–	–	–
C=C(CN(C)C)C(=O)N1CC(COc2nc(-c3ccc(O)c(Cl)c3)nc3[nH]ncc23)C1 [Compound 3-60]	–	–	–	–	–	–	–	A (a value of 3 or above)	E (a pKi value of 7 or below (Ki of 100 nM or above))	E (a pKi value of 7 or below (Ki of 100 nM or above))	E (a pKi value of 7 or below (Ki of 100 nM or above))	B (a pIC50 value between 6.7 (included) and 7.5 (IC50 between 200 nM and 32 nM))	A (a pKi value≥10 (Ki≤0.1 nM))	–

Source: patent publication US10392368B2, “Pyrazolo and triazolo bicyclic compounds as JAK kinase inhibitors” (THERAVANCE BIOPHARMA R&D IP, LLC, priority 2017, dated 2019)
